In publication PMC10779311, “Antileishmanial Activity, Toxicity and Mechanism of Action of Complexes of Sodium Usnate with Lanthanide Ions: Eu(III), Sm(III), Gd(III), Nd(III), La(III) and Tb(III)” (International Journal of Molecular Sciences, 2023):
Values after ≈ are worked out from the molar mass of the structure shown.

Tests used:
[1] = tested on: promastigotes of Leishmania major; design: method as in ref 18 Derici et al.; conditions: ref 18 Derici et al.; cited from earlier work
[2] = tested on: promastigotes of L. (L.) infantum; design: method as in ref 18 Derici et al.; conditions: ref 18 Derici et al.; cited from earlier work
[3] = tested on: promastigotes of L. tropica; design: method as in ref 18 Derici et al.; conditions: ref 18 Derici et al.; cited from earlier work
[4] = tested on: L. (L.) infantum promastigotes; design: method as in ref 16 Luz et al.; conditions: ref 16 Luz et al.; cited from earlier work
[5] = tested on: Trypanosoma cruzi epimastigotes; design: method as in ref 45 Carvalho et al.; conditions: 30–50 μg·mL^−1; ref 45 Carvalho et al.; cited from earlier work
[6] = tested on: L. (L.) infantum promastigotes; design: method as in ref 16 Luz et al.; conditions: 25 μg·mL^−1; ref 16 Luz et al.; cited from earlier work
[7] = tested on: L. (L.) amazonensis promastigote forms; experiment: In vitro antileishmanial activity on promastigote forms (MTT); assay type: cell-based, Leishmania (Leishmania) amazonensis; conditions: 72 h, MTT; read-out: L. amazonensis Promastigotes (Pro.) IC50
[8] = tested on: L. (L.) amazonensis intracellular amastigotes; experiment: In vitro antileishmanial activity on intracellular amastigotes in peritoneal macrophages; assay type: cell-based, Leishmania (Leishmania) amazonensis
Experimental: Peritoneal macrophages were obtained from BALB/c mice in RPMI 1640 culture medium (Sigma-Aldrich® São Paulo, Brazil). After exclusion of inviable cells with trypan blue staining (Sigma-Aldrich® São Paulo, Brazil), cells were transferred to 24-well plates with 13 mm round glass coverslips (10^6 cells/well) and kept at 37 °C/5% CO2. After adhesion for one hour, cells were infected with promastigote forms of L. (L.) amazonensis in the stationary phase (4 × 10^6 cells/well). After 4 h of incubation, samples (complexes 1–7) were added in six replicates (6.25–50.0 µg·mL^−1). […] Coverslips were removed after 24 h, subjected to a dehydration battery with increasing concentrations of acetone: xylol and stained with Giemsa (Sigma-Aldrich®, São Paulo, Brazil) diluted 1:10 in distilled water. After mounting on slides, 200 cells per coverslip were analyzed by light microscopy and the average number of amastigotes/cells was calculated. IC50 was determined using a non-linear dose–response regression curve as described above. The concentrations of complexes were compared by Two-way ANOVA followed by the Tukey test.

[9] = tested on: NIH/3T3 fibroblasts; experiment: Cytotoxicity in mammalian cells (sulforhodamine B); assay type: cell-based; conditions: 48 h, read-out: Fibroblasts NIH/3T3 (Fib.) IC50
Experimental: The cytotoxic effect of compounds 1–7 was evaluated on NIH/3T3 fibroblasts obtained from the Rio de Janeiro Cell Bank (Duque de Caxias, Brazil). Fibroblasts were seeded at […] in 96-well plates. After 24 h of fixation, cells were incubated for 48 h with 1–7 at 2.5–250 µg·mL^−1, in three replicates. Cell growth was evaluated using the sulforhodamine B colorimetric method, and the optical with absorbances read on the PT-READER microplate instrument (Spectramax 190, Molecular Devices, Sunnyvale, CA, USA) at 540 nm. […] The growth inhibition percentage-GI (%) of each test sample was calculated in Microsoft Office Excel 2007 software. IC50 was determined graphically in the Microcal Origin Version 6.00 program. The selectivity index (SI) was calculated as the ratio between the cytotoxicity on cells (IC50) and the activity on the parasite forms (IC50).

[10] = tested on: L. (L.) amazonensis-infected macrophages; experiment: NO production by infected cells (Griess reaction); assay type: cell-based, BALB/c mice; conditions: 24 h after treatment, lowest concentration 6.25 µg·mL^−1
Experimental: Nitric oxide (NO) production by infected and treated peritoneal macrophages was estimated in the supernatants from the intracellular amastigotes assay by the Griess reaction. Aliquots of the supernatants ([…]) were incubated with Griess reagent (1:1) for 10 min at room temperature. Absorbance was read on a microplate reader (HumanReader HS, Wiesbaden, Germany) at 550 nm. Conversion of nitrite (NO^−2) to micromolar (µM) was performed by comparing the samples to a standard curve obtained with known concentrations (1–10 µM) of sodium nitrite diluted in RPMI 1640 medium (Sigma-Aldrich® São Paulo, Brazil). The average and standard error of the mean (SEM) were calculated from three replicates. The data were analyzed using ANOVA and subsequently subjected to the Bonferroni test.

[11] = tested on: L. (L.) amazonensis promastigote forms; experiment: Flow cytometry for mitochondrial membrane potential (TMRE); assay type: cell-based, Leishmania (Leishmania) amazonensis
[12] = tested on: L. (L.) amazonensis promastigote forms; experiment: Flow cytometry for apoptosis and membrane permeability (PE Annexin V / 7-AAD); assay type: cell-based, Leishmania (Leishmania) amazonensis; conditions: treatment at IC50
Excerpt: PE Annexin V staining precedes the loss of membrane integrity observed in the final stages of cell death, resulting from either apoptotic or necrotic processes. PE Annexin V is used in conjunction with the vital dye 7-Amino-Actinomycin (7-AAD) to identify early apoptotic cells (7-AAD negative, PE Annexin V positive). Viable cells with intact membranes exclude 7-AAD, but the membranes of dead and damaged cells are permeable to 7-AAD. Cells that are in late apoptosis or already dead are both PE Annexin V and 7-AAD positive. […] Heat-killed parasites (60 °C bath/10 min) were used as positive control, and untreated parasites were used as negative control. Promastigotes were stained with 5 µL of PE Annexin V and 5 µL 7-AAD (PE Annexin V Apoptosis Detection Kit I, BD Biosciences^TM, Franklin Lakes, NJ, USA) and immediately subjected to flow cytometric analysis (BD FACSCanto^TM II). Then, 10,000 events were captured in the region previously determined to correspond to the parasites. Fluorescence was quantified and histograms were generated.

## CC(=O)c1c(O)c(C)c(O)c2c1OC1=CC(=O)C(C(C)=O)C(=O)C12C (centres unmarked) [usnic acid, 2,6-diacetyl-7,9-dihydroxy-8,9-dimethyl-1,3(2H,9bH)-dibenzofurandione]
[1]
  IC50/48 h on promastigotes: 10.76 µg/mL (≈ 31.3 µM)
[2]
  IC50/48 h on promastigotes: 13.34 µg/mL (≈ 38.7 µM)
[3]
  IC50/48 h on promastigotes: 21.06 µg/mL (≈ 61.2 µM)
[4]
  IC50/72 h on promastigotes: 18.30 µg/mL (≈ 53.1 µM)
[5]
  damage to the mitochondria: marked swelling and branching
[6]
  changes in the mitochondrial morphology: marked swelling

## CC(=O)C1=C([O-])C=C2Oc3c(C(C)=O)c(O)c(C)c(O)c3C2(C)C1=O.CC(=O)C1=C([O-])C=C2Oc3c(C(C)=O)c(O)c(C)c(O)c3C2(C)C1=O.CC(=O)C1=C([O-])C=C2Oc3c(C(C)=O)c(O)c(C)c(O)c3C2(C)C1=O.O.O.O.[Eu+3] (centres unmarked) [EuL3·3H2O 4]
[7]
  IC50: 200 nM
[8]; BALB/c peritoneal macrophages, 24 h, Giemsa count, read-out: L. amazonensis Intracellular Amastigotes (Ama.) IC50
  IC50: 2980 nM
[8]; converted from µM
  IC50 on intracellular amastigotes: 3.687 µg/mL
[9]
  IC50: 20100 nM
[10]
  NO release from infected macrophages: strongest effect
[10]; listed as EuL3·3H2O
  NO release from infected macrophages: triggered NO release
[11]; 48 h after treatment at the calculated IC50
  TMRE-labeled promastigotes: 79.9%
[11]; 72 h after treatment at the calculated IC50
  TMRE-labeled promastigotes: 80.6%
[12]; 24 h
  7-AAD-stained parasites: 0.5%
  An. (PE Annexin V-stained parasites): 0.6%
  An./7-AAD (double stained parasites): 0.7%
  Unst. (unstained parasites): 98.2%
[12]; 48 h
  7-AAD-stained parasites: 1.0%
  An. (PE Annexin V-stained parasites): 1.3%
  An./7-AAD (double stained parasites): 2.3%
  Unst. (unstained parasites): 95.4%
[12]; 72 h
  7-AAD-stained parasites: 6.0%
  An. (PE Annexin V-stained parasites): 1.9%
  An./7-AAD (double stained parasites): 8.1%
  Unst. (unstained parasites): 84.0%
